≈ marks a conversion by molar mass, not a printed value.
What was measured:
Type in all cases: cell-based
MCF-7 cells = test: Cell death estimation, cycloheximide-exposed MCF-7 cells (trypan blue); details: for Effect on percent of dead cells: cells exposed to CX for 48 hours, compared with Control not exposed to CX
Method: Subconfluent cultures of MCF-7 cells in 35 mm dishes, were deprived of serum for 20 hours and then exposed to 30 μg/ml cycloheximide in the presence or absence of increasing concentrations of fractionated ATA, crude ATA or EB. After 48 hours, the cells were detached with trypsin. The medium and the detached cells were pooled and centrifuged at 1000×g for 10 mins. Cell viability was estimated by adding an equivalent volume of trypan blue solution to an aliquot of suspended cells. Stained and unstained cells were counted on a hemocytometer (10^3 cells were counted for each determination).
Subconfluent, 20 hours starved MCF-7 cells were exposed to 30 μg/ml
of cycloheximide in the presence of increasing
concentrations of fractionated ATA (0, 6, 12, 25, 50 μg/ml). After
48 hours, percent of dead cells was
determined as described under "Experimental procedures". In the
presence of cycloheximide only, 60-70% of
the cells were dead after 48 hours.
Cultures of […] cells were exposed to 30 μg CX for 48 hours in the presence of EB, ATA, IGF-1, or nothing.

IRS-1 = IRS-1 tyrosine phosphorylation and association with p85/Grb2 in MCF-7 cells; details: 5 mins., ATA or EB 300 μg/ml, IGF-1 20 ng/ml
Method: FIG. 3 is the effect of ATA and EB on tyrosine phosphorylation or IRS-1: MCF-7 cells grown in 100 mm dishes, were treated with ATA or EB, each at 300 μg/ml, or 20 ng/ml IGF-1 for 5 mins. Total cell extracts, solubilized in Buffer A, were subjected to immunoprecipitation with antibodies to IRS-1 (a) or Grb2 (b). The immunocomplexes, precipitated with protein G-Sepharose beads, were subjected to 7.5% SDS-PAGE followed by immunoblotting with a phosphotyrosine antibody, an antibody to the 85-kDa subunit of PI3-kinase or antibody to IRS-1.
(§1) Cells were solubilized in Buffer A or C. Extracts were immunoprecipitated at 4° C. with antibodies to IRS-1, IRS-2, IGF-1 or IR receptor or Grb2, adsorbed on protein A-Sepharose beads. The immunocomplexes were pelleted by centrifugation at 12,000×g and washed twice with Buffer A, and twice with Buffer A containing 0.1% Triton x-100. The pellets were then suspended in Laemmli sample buffer and resolved on 7.5% SDS-PAGE.
(§2) Nitrocellulose blots of proteins were incubated with the antibodies, and proteins were detected by enhanced chemiluminescence using horseradish peroxidase-labeled protein A, horseradish peroxidase-labeled anti rabbit IgG or horseradish peroxidase-labeled anti-mouse IgG.
(§3) MCF-7 cells were stimulated with ATA, EB or IGF-1, solubilized and immunoprecipitated with anti IRS-1 or IRS-2 antibodies, separated by SDS-PAGE and immunoblotted with anti-phosphotyrosine antibody. […] The association of IRS-1 with Grb-2 was evaluated in lysates from treated cells which were immunoblotted with antibodies to either phosphotyrosine or IRS-1.

IRS-2 = IRS-2 association with p85 of PI3-kinase in MCF-7 cells; details: 5 mins., ATA or EB 300 μg/ml, IGF-1 20 ng/ml
Method: FIG. 4 is the effect of ATA and EB on tyrosine phosphorylation of IRS-2: MCF-7 cells were treated as in FIG. 3. Total cell extracts, solubilized in Buffer C, were immunoprecipitated with an antibody to IRS-2. The immunocomplexes, precipitated with protein A-Sepharose beads were subjected to 7.5% SDS-PAGE, followed by immunoblotting with a phosphotyrosine antibody and an antibody to the 85-kDA subunit of PI3-kinase.
as §1, §2, §3

PI3-kinase = test: Anti-IRS-1 precipitable PI3-kinase activity in MCF-7 cells; details: 5 mins., ATA or EB 300 μg/ml
Method: FIG. 5 is the effect of ATA and EB on the anti-IRS-1 precipitable PI3-kinase activity: Cells were treated as in FIG. 3a. Anti-IRS-1 immunoprecipitates were washed and the pellets incubated with phosphatidyl inositol and γ^32 P-ATP.
Phosphorylation of phosphatidyl inositol was measured as follows. Cells were solubilized in Buffer C and the extracts immunoprecipitated at 4° C. with IRS-1 antibody and adsorbed onto protein A-Sepharose beads. The immunoprecipitates were washed three times with Buffer C and then washed once with Buffer B, Buffer E and Buffer F. The lipid kinase reaction was initated by addition of 100 μl sonicated phosphatidylinositol (10 μg) in kinase buffer (20 mM Hepes, pH 7.5, 10 mM MnCl2 and 10 mM MgCl2) containing 10 μCi [γ^32 P]ATP (3000 ci/m mol; Amersham). The reaction was performed at room temperature for 10 mins. and terminated by the addition of 100 μl 1 N HCl. Lipids were extracted by addition of 200 μl of a 1:1 mixture of chloroform/methanol, followed by vortexing and centrifugation at 14,000×g for 10 mins. The chloroform-containing lipid phase was then re-extracted with 150 μl of a 1:1 mixture of 1N HCl/methanol, followed by vortexing and centrifugation at 14,000×g for 10 mins. The 30 μl of the chloroform phase were resolved by thin layer chromatography using a chloroform/methanol/ammonium hydroxide (90:70:20 v/v)) running buffer. […]

IGF-1 receptor β subunit = target: T1, IGF-1 receptor β subunit (Homo sapiens, UniProt P08069); test: Tyrosine phosphorylation of IGF-1 receptor in MCF-7 cells; details: 5 mins., ATA, EB each at 300 μg/ml
T1 construct: endogenous in cells; host or cells: MCF-7
T1 sequence (P08069 741-1367 limits assumed): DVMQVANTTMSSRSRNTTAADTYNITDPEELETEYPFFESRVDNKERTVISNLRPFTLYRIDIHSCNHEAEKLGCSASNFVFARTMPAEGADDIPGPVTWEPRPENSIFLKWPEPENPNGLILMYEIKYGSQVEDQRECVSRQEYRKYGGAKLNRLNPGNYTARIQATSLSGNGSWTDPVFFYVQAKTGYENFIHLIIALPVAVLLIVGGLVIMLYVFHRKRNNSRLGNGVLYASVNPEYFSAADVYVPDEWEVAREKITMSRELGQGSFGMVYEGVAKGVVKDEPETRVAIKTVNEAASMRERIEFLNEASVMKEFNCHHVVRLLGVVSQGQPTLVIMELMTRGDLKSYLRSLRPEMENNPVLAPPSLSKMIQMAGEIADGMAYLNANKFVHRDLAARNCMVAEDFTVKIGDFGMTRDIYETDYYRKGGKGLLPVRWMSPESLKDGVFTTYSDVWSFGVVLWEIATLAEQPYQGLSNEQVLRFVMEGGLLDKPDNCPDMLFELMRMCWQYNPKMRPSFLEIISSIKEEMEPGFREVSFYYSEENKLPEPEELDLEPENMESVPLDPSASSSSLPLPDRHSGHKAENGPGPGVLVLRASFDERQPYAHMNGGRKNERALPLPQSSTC
T1 sequence (P08069 31-736 limits assumed): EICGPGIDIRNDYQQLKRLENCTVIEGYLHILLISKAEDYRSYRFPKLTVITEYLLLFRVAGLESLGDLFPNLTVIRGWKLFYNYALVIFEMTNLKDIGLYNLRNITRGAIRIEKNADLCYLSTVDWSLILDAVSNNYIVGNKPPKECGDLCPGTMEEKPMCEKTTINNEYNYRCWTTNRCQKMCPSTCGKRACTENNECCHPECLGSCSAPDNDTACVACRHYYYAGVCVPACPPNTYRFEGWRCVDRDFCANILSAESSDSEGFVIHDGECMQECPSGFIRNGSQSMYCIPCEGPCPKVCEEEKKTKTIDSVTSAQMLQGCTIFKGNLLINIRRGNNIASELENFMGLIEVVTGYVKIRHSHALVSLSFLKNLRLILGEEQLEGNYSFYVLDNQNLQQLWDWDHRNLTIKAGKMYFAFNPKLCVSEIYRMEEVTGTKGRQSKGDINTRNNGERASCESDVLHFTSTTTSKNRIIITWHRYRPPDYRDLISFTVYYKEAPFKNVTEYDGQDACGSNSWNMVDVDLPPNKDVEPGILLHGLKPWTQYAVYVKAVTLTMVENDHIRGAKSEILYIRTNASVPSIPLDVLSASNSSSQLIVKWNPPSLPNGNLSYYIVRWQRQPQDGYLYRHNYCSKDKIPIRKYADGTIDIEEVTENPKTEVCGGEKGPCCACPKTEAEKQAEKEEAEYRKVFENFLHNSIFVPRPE
Method: FIG. 6 is the effect of ATA and EB on tyrosine phosphorylation of IGF-1 receptor: MCF-7 cells, grown in 100 mm dishes, were treated with ATA, EB each at 300 μg/ml, or 20 ng/ml IGF-1 for 5 mins. Total cell extracts, solubilized in Buffer A, were immunoprecipitated with IGF1R antibody. The immunocomplexes precipitataed with protein G-Sepharose beads, were subjected to 7.5% SDS-PAGE followed by immunoblotting with a phosphotyrosine antibody. The membrane, after ECL detection, was stripped of bound antibody and reblotted with IGF1R antibody (IGF1R).
as §1
Nitrocellulose blots of proteins were incubated with the antibodies, and proteins were detected by enhanced chemiluminescence using horseradish peroxidase-labeled protein A, horseradish peroxidase-labeled anti rabbit IgG or horseradish peroxidase-labeled anti-mouse IgG. […]

3T3 L1 adipocytes [1] = test: 2-deoxyglucose uptake in 3T3 L1 adipocytes; details: 20 mins., EB, ATA 200 μg/ml, insulin 600 ng/ml
Method: (§4) FIG. 11 is the metabolic effects in 3T3 L1 adipocytes: Fully differentiated 3T3 L1 adipocytes were incubated with EB, ATA or fuchsin (FUCH) each at 200 μg/ml, or with 600 ng/ml of insulin for 20 mins. (A, B, C) or 5 mins. (D). CON indicates no additive.
A--2-deoxyglucose uptake. Hexose uptake was measured for 10 mins. using 50 μM 2-deoxy-(^3 H) glucose (1 μCi/ml). Non-specific uptake was determined in the presence of cytochalasin B (50 μM).

3T3 L1 adipocytes [2] = test: Glycogen synthesis in 3T3 L1 adipocytes; details: 20 mins., EB, ATA 200 μg/ml, insulin 600 ng/ml
Method: as §4
B--Glycogen synthesis. Cells were incubated with (^14 C)-glucose for 10 mins. Radioactivity was determined in the precipitated glycogen fraction.

3T3 L1 adipocytes [3] = test: Lipogenesis in 3T3 L1 adipocytes; details: 20 mins., EB, ATA 200 μg/ml, insulin 600 ng/ml
Method: as §4
C--Lipogenesis. Cells were incubated with 5 mM(U-^14 C) glucose (1 μCi/ml) for 60 mins. Radioactivity was determined in the cellular lipid fraction.

Compound | Percent dead cells (MCF-7 cells; 30 μg CX, 48 hours, ATA 100 μg/ml) [%] | IC50 (MCF-7 cells; Homo sapiens, MCF7, starved MCF-7 cells, 30 μg/ml cycloheximide, 48 hours, read-out: IC50, concentration which inhibits 50% of cell death induced by cycloheximide) [µg/mL] | Effect on percent of dead cells (MCF-7 cells) | Association of IRS-1 with Grb-2 (IRS-1) | Association of p85 subunit of PI3-k with IRS-1 (IRS-1) | Phosphorylation of IRS-1 (IRS-1) | Association of p85 subunit of PI3-k with IRS-2 (IRS-2) | PI3-kinase activity (anti-IRS-1 precipitable) (PI3-kinase) | Tyrosine phosphorylation of IGF-1 receptor β subunit (IGF-1 receptor β subunit) | Glucose uptake (3T3 L1 adipocytes [1]) | Glycogen synthesis (3T3 L1 adipocytes [2]) | Lipogenesis (3T3 L1 adipocytes [3])
O=C(O)C1=CC(=C(c2ccc(O)c(C(=O)O)c2)c2ccc(O)c(C(=O)O)c2)C=CC1=O [ATA, Aurintricarboxylic acid] | 8 ± 3 | 18 (≈ 42.6 µM) | reduced the percent of dead cells to that observed in cells not exposed to CX | IRS-1 co-precipitated with Grb2 | p85 precipitates with IRS-1 | stimulated the phosphorylation of IRS-1 | p85 precipitates | increases PI3-kinase activity similar to IGF-1 | phosphorylated the IGF-1 receptor β subunit | increase glucose uptake | increase | increase
Cc1cc(-c2ccc(N=Nc3ccc4c(S(=O)(=O)O)cc(S(=O)(=O)O)c(N)c4c3O)c(C)c2)ccc1N=Nc1ccc2c(S(=O)(=O)O)cc(S(=O)(=O)O)c(N)c2c1O [EB, Evan's Blue] |  |  | reduced the percent of dead cells to that observed in cells not exposed to CX | IRS-1 co-precipitated with Grb2 | p85 precipitates with IRS-1 | stimulated the phosphorylation of IRS-1 | p85 precipitates | increases PI3-kinase activity similar to IGF-1 | phosphorylated the IGF-1 receptor β subunit | increase glucose uptake | increase | increase

— US6020374A, “Biologically active synthetic dye compounds” (priority 1998, dated 2000)
